Patent publication US20260008768A1, “UREA DERIVATIVES FOR INHIBITING NLRP3 AND USES THEREOF” (VENTUS THERAPEUTICS U.S., INC., priority 2023, published 2026)
pIC50: −log10 of the molar value.

biological target: human NLRP3 (Homo sapiens, UniProt Q96P20); assay: Scintillation Proximity (SPA) NLRP3 Assay, displacement of 3H-MCC950; type: binding; settings: Table B, activity class; displacement of 3H-MCC950 from human NLRP3
Experimental: Improved NLRP3 binding correlates with increased affinity for NLRP3 protein and, by extension, increased ability to interfere with its function.
SPA experiments were conducted in a total volume of 20 μL assay buffer containing 20 mM HEPES pH 7.5, 150 mM NaCl, 5 mM MgCl2, 0.01% (v/v) Tween-20, 0.01% (w/v) bovine serum albumin (BSA) and 100 μM of adenosine diphosphate (ADP). A human NLRP3 protein (350 nM) (see, e.g., Sharif et al., Nature (2019) 570:338-343; Hochheiser et al., Nature (2022) 604:184-189; Adreeva et al., Cell (2021) 184:6299-6312; Wang et al., J Exp. Med. (2021) 219:e20211147) was incubated with various concentration of compounds in 5% dimethyl sulfoxide (DMSO) final for 15 minutes at room temperature in a white half-area 96 well OptiPlate (PerkinElmer #6002290) before adding 125 nM final of 3H-MCC950. After the addition of radiolabeled MCC950, the plate was incubated for 60 minutes at room temperature before adding 0.25 mg/ml of copper-coated polyvinyltoluene SPA beads (PerkinElmer #RPNQ0095). The plate was then transferred to a microplate counter (PerkinElmer 2450 Microbeta) to collect binding data. Binding data was analyzed 6 hrs post-PVT bead addition to allow sufficient time to reach equilibrium. Specific binding was calculated from averaged duplicates by subtracting signal from wells without NLRP3 protein.
SPA NLRP3 IC50 assay results are provided in Table B. “A” activity=<1 uM; “B” activity=1-10 uM; “C” activity=>10-50 uM; “D” activity=>50 uM-100 uM; and “E” activity=>100 uM.

Chain of human NLRP3 (Q96P20 whole entry): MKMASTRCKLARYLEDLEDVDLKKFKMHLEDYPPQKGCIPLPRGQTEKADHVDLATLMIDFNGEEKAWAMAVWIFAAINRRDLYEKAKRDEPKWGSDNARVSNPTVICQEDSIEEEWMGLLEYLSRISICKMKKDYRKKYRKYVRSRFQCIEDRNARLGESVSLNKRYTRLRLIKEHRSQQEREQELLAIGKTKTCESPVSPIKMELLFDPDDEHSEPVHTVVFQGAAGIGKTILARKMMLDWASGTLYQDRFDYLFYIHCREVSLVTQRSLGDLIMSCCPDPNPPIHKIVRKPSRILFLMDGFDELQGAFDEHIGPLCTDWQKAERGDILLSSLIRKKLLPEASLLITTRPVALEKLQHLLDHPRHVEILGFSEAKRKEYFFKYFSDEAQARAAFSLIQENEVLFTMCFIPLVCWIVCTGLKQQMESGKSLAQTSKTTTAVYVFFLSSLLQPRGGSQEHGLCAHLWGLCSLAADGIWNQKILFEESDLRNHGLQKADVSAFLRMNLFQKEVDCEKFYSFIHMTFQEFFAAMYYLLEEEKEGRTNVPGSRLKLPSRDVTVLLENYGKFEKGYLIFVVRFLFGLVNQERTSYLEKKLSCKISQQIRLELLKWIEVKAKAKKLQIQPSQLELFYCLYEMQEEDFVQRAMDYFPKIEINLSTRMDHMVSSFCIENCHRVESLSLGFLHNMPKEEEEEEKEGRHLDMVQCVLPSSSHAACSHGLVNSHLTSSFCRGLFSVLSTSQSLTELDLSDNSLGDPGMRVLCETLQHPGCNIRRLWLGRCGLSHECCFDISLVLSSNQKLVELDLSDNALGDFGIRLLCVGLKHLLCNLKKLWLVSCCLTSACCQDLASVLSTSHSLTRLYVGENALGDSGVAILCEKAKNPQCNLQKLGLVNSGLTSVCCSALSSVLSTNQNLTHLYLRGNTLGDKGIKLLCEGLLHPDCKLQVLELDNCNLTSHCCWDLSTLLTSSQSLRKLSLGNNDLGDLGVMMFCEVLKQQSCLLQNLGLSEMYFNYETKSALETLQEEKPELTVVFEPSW

SMILES	pIC50
C[C@@H]1CCN(c2nnn[nH]2)C[C@@H](NC(=O)N(C)c2ccc(C3CC3)c(F)c2)C1 (single isomer, unassigned) [23B*]	5.00 to 6.00
C[C@H]1CCN(c2nnn[nH]2)C[C@H](NC(=O)N(C)c2ccc(C3CC3)c(F)c2)C1 (single isomer, unassigned) [23C*]	4.30 to 5.00
C[C@H]1CCN(c2nnn[nH]2)C[C@@H](NC(=O)N(C)c2ccc(C3CC3)c(F)c2)C1 (single isomer, unassigned) [23D*]	5.00 to 6.00
C[C@@H]1CCN(c2nnn[nH]2)C[C@@H](NC(=O)N(C)c2ccc(OC(F)(F)F)cc2F)C1 (single isomer, unassigned) [24B*]	5.00 to 6.00
C[C@H]1CCN(c2nnn[nH]2)C[C@H](NC(=O)N(C)c2ccc(OC(F)(F)F)cc2F)C1 (single isomer, unassigned) [24C*]	4.30 to 5.00
C[C@H]1CCN(c2nnn[nH]2)C[C@@H](NC(=O)N(C)c2ccc(OC(F)(F)F)cc2F)C1 (single isomer, unassigned) [24D*]	5.00 to 6.00
C[C@@H]1CCN(c2nnn[nH]2)C[C@@H](NC(=O)N(C)c2ccc(OC(F)(F)F)c(OC(F)F)c2)C1 (single isomer, unassigned) [25B*]	5.00 to 6.00
C[C@H]1CCN(c2nnn[nH]2)C[C@H](NC(=O)N(C)c2ccc(OC(F)(F)F)c(OC(F)F)c2)C1 (single isomer, unassigned) [25C*]	5.00 to 6.00
C[C@H]1CCN(c2nnn[nH]2)C[C@@H](NC(=O)N(C)c2ccc(OC(F)(F)F)c(OC(F)F)c2)C1 (single isomer, unassigned) [25D*]	4.30 to 5.00
C[C@@H]1CCN(c2nnn[nH]2)C[C@@H](NC(=O)N(C)c2ccc(OC(F)(F)F)c(F)c2F)C1 (single isomer, unassigned) [26B*]	5.00 to 6.00
C[C@H]1CCN(c2nnn[nH]2)C[C@H](NC(=O)N(C)c2ccc(OC(F)(F)F)c(F)c2F)C1 (single isomer, unassigned) [26C*]	< 4.00
C[C@H]1CCN(c2nnn[nH]2)C[C@@H](NC(=O)N(C)c2ccc(OC(F)(F)F)c(F)c2F)C1 (single isomer, unassigned) [26D*]	4.30 to 5.00
C[C@@H]1CCN(c2nnn[nH]2)C[C@H](NC(=O)Nc2ccc(Cl)cc2F)C1 (single isomer, unassigned) [27A*]	5.00 to 6.00
C[C@@H]1CCN(c2nnn[nH]2)C[C@@H](NC(=O)Nc2ccc(Cl)cc2F)C1 (single isomer, unassigned) [27B*]	5.00 to 6.00
C[C@H]1CCN(c2nnn[nH]2)C[C@H](NC(=O)Nc2ccc(Cl)cc2F)C1 (single isomer, unassigned) [27C*]	4.30 to 5.00
C[C@H]1CCN(c2nnn[nH]2)C[C@@H](NC(=O)Nc2ccc(Cl)cc2F)C1 (single isomer, unassigned) [27D*]	< 4.00
C[C@@H]1CCN(c2nnn[nH]2)C[C@H](NC(=O)N(C)c2ccc(Cl)cn2)C1 (single isomer, unassigned) [28A*]	5.00 to 6.00
C[C@@H]1CCN(c2nnn[nH]2)C[C@@H](NC(=O)N(C)c2ccc(Cl)cn2)C1 (single isomer, unassigned) [28B*]	4.00 to 4.30
C[C@H]1CCN(c2nnn[nH]2)C[C@H](NC(=O)N(C)c2ccc(Cl)cn2)C1 (single isomer, unassigned) [28C*]	4.00 to 4.30
C[C@H]1CCN(c2nnn[nH]2)C[C@@H](NC(=O)N(C)c2ccc(Cl)cn2)C1 (single isomer, unassigned) [28D*]	4.30 to 5.00
C[C@@H]1CCN(c2nnn[nH]2)C[C@H](NC(=O)N(C)c2ccc(Cl)nc2)C1 (single isomer, unassigned) [29A*]	5.00 to 6.00
C[C@@H]1CCN(c2nnn[nH]2)C[C@@H](NC(=O)N(C)c2ccc(Cl)nc2)C1 (single isomer, unassigned) [29B*]	5.00 to 6.00
C[C@H]1CCN(c2nnn[nH]2)C[C@H](NC(=O)N(C)c2ccc(Cl)nc2)C1 (single isomer, unassigned) [29C*]	4.00 to 4.30
C[C@H]1CCN(c2nnn[nH]2)C[C@@H](NC(=O)N(C)c2ccc(Cl)nc2)C1 (single isomer, unassigned) [29D*]	4.30 to 5.00
C[C@@H]1CCN(c2nnn[nH]2)C[C@H](NC(=O)N(C)c2ncc(C(F)(F)F)cn2)C1 (single isomer, unassigned) [30A*]	< 4.00
C[C@@H]1CCN(c2nnn[nH]2)C[C@@H](NC(=O)N(C)c2ncc(C(F)(F)F)cn2)C1 (single isomer, unassigned) [30B*]	< 4.00
C[C@H]1CCN(c2nnn[nH]2)C[C@H](NC(=O)N(C)c2ncc(C(F)(F)F)cn2)C1 (single isomer, unassigned) [30C*]	< 4.00

SMILES	pIC50
C[C@H]1CCN(c2nnn[nH]2)C[C@@H](NC(=O)N(C)c2ncc(C(F)(F)F)cn2)C1 (single isomer, unassigned) [30D*]	< 4.00
C[C@@H]1CCN(c2nnn[nH]2)C[C@H](NC(=O)N(C)c2cnc(C(F)(F)F)nc2)C1 (single isomer, unassigned) [31A*]	4.30 to 5.00
C[C@@H]1CCN(c2nnn[nH]2)C[C@@H](NC(=O)N(C)c2cnc(C(F)(F)F)nc2)C1 (single isomer, unassigned) [31B*]	4.30 to 5.00
CC1CCN(c2nnn[nH]2)CC(NC(=O)N(C)c2cnc(C(F)(F)F)nc2)C1 (single isomer, unassigned) [31C*]	4.30 to 5.00
C[C@H]1CCN(c2nnn[nH]2)C[C@@H](NC(=O)N(C)c2cnc(C(F)(F)F)nc2)C1 (single isomer, unassigned) [31D*]	4.30 to 5.00
C[C@@H]1CCN(c2nnn[nH]2)C[C@@H](NC(=O)N(C)c2cnc(C(F)(F)F)cn2)C1 (single isomer, unassigned) [32B*]	4.00 to 4.30
C[C@H]1CCN(c2nnn[nH]2)C[C@H](NC(=O)N(C)c2cnc(C(F)(F)F)cn2)C1 (single isomer, unassigned) [32C*]	4.00 to 4.30
C[C@H]1CCN(c2nnn[nH]2)C[C@@H](NC(=O)N(C)c2cnc(C(F)(F)F)cn2)C1 (single isomer, unassigned) [32D*]	4.00 to 4.30
C[C@@H]1CCN(c2nnn[nH]2)C[C@H](NC(=O)N(C)c2ccc(C(F)(F)F)nn2)C1 (single isomer, unassigned) [33A*]	4.30 to 5.00
C[C@@H]1CCN(c2nnn[nH]2)C[C@@H](NC(=O)N(C)c2ccc(C(F)(F)F)nn2)C1 (single isomer, unassigned) [33B*]	4.00 to 4.30
C[C@H]1CCN(c2nnn[nH]2)C[C@H](NC(=O)N(C)c2ccc(C(F)(F)F)nn2)C1 (single isomer, unassigned) [33C*]	4.00 to 4.30
C[C@H]1CCN(c2nnn[nH]2)C[C@@H](NC(=O)N(C)c2ccc(C(F)(F)F)nn2)C1 (single isomer, unassigned) [33D*]	4.00 to 4.30
C[C@@H]1CCN(c2nnn[nH]2)C[C@@H](NC(=O)N(C)c2ccc(OC(F)F)c(F)c2F)C1 (single isomer, unassigned) [40B*]	5.00 to 6.00
C[C@H]1CCN(c2nnn[nH]2)C[C@H](NC(=O)N(C)c2ccc(OC(F)F)c(F)c2F)C1 (single isomer, unassigned) [40C*]	4.30 to 5.00
C[C@@H]1CCN(c2nnn[nH]2)C[C@@H](NC(=O)N(C)c2c(F)cc(OC(F)(F)F)cc2F)C1 (single isomer, unassigned) [41B*]	5.00 to 6.00
C[C@H]1CCN(c2nnn[nH]2)C[C@H](NC(=O)N(C)c2c(F)cc(OC(F)(F)F)cc2F)C1 (single isomer, unassigned) [41C*]	4.00 to 4.30
C[C@H]1CCN(c2nnn[nH]2)C[C@@H](NC(=O)N(C)c2c(F)cc(OC(F)(F)F)cc2F)C1 (single isomer, unassigned) [41D*]	5.00 to 6.00
C[C@@H]1C[C@H](NC(=O)N(C)c2ccc(OC(F)F)cc2)[C@H]2CC[C@@H]1N2c1nnn[nH]1 (single isomer, unassigned) [42B*]	4.30 to 5.00
C[C@H]1C[C@@H](NC(=O)N(C)c2ccc(OC(F)F)cc2)[C@@H]2CC[C@H]1N2c1nnn[nH]1 (single isomer, unassigned) [42C*]	< 4.00
C[C@H]1C[C@H](NC(=O)N(C)c2ccc(OC(F)F)cc2)[C@@H]2CC[C@H]1N2c1nnn[nH]1 (single isomer, unassigned) [42D*]	4.30 to 5.00
CCN(C(=O)N[C@H]1C[C@H](C)CCN(c2nnn[nH]2)C1)c1ccc(OC(F)(F)F)cc1 (single isomer, unassigned) [43B*]	> 6.00
CCN(C(=O)N[C@@H]1C[C@@H](C)CCN(c2nnn[nH]2)C1)c1ccc(OC(F)(F)F)cc1 (single isomer, unassigned) [43C*]	4.30 to 5.00
CCN(C(=O)N[C@H]1C[C@@H](C)CCN(c2nnn[nH]2)C1)c1ccc(OC(F)(F)F)cc1 (single isomer, unassigned) [43D*]	5.00 to 6.00
C[C@@H]1CCN(c2nnn[nH]2)C[C@@H](NC(=O)N(CC2CC2)c2ccc(OC(F)(F)F)cc2)C1 (single isomer, unassigned) [44B*]	5.00 to 6.00
C[C@H]1CCN(c2nnn[nH]2)C[C@H](NC(=O)N(CC2CC2)c2ccc(OC(F)(F)F)cc2)C1 (single isomer, unassigned) [44C*]	4.30 to 5.00
C[C@H]1CCN(c2nnn[nH]2)C[C@@H](NC(=O)N(CC2CC2)c2ccc(OC(F)(F)F)cc2)C1 (single isomer, unassigned) [44D*]	5.00 to 6.00

same assay, conditions: Table C; displacement of 3H-MCC950 from human NLRP3

SMILES	pIC50
C[C@@H]1CCN(c2nnn[nH]2)C[C@H](NC(=O)Nc2ccc(Cl)cc2F)C1 (single isomer, unassigned) [27A*]	5.85
